{"source": "paper PMC8391421", "about": "“Identification of Novel Positive Allosteric Modulators of Neurotrophin Receptors for the Treatment of Cognitive Dysfunction” (Cells, 2021)", "key": {"Wistar rats": {"test_system": "Wistar rats", "assay": "Novel object recognition", "assay_type": "in vivo, rat", "settings": "1 mg/kg", "procedure": "The novel object recognition model was conducted by Suven Life Sciences Ltd. (Hyderabad, India) using male Wistar rats (n = 12/group). This study was performed in compliance with the requirements and in-house animal care and usage policy of the Institutional Animal Ethics Committee (IAEC). The experiment was conducted over a 5-day period. For the first 3 days, ACD855 or vehicle were administered to the animals. On Day 4, the rats were acclimatized to their respective arenas for 20 min and then returned to their home cages for the administration of ACD855 or vehicle (1 h post habituation phase). On Day 5, the rats were administered vehicle or ACD855 1 h prior to trial, donepezil (1 mg/kg) was injected 30 min prior to trial, and scopolamine (1 mg/kg) was injected 20 min prior to trial. 20 min after scopolamine administration, the rats were subjected to the familiarization phase. The experiment was performed as described by Lueptow. The discriminative index for the drug-treated groups was compared to that of the vehicle group by use of the Kruskal–Wallis test. The discriminative index is the ratio of time spent exploring the novel object divided by the sum of the time spent exploring the novel object and a familiar object in the choice trial."}, "TrkC": {"target": "T1, TrkC (Homo sapiens, UniProt Q16288)", "T1 construct": "host or cells: U2OS (human osteosarcoma), co-expressing p75", "T1 sequence (Q16288 32-839)": "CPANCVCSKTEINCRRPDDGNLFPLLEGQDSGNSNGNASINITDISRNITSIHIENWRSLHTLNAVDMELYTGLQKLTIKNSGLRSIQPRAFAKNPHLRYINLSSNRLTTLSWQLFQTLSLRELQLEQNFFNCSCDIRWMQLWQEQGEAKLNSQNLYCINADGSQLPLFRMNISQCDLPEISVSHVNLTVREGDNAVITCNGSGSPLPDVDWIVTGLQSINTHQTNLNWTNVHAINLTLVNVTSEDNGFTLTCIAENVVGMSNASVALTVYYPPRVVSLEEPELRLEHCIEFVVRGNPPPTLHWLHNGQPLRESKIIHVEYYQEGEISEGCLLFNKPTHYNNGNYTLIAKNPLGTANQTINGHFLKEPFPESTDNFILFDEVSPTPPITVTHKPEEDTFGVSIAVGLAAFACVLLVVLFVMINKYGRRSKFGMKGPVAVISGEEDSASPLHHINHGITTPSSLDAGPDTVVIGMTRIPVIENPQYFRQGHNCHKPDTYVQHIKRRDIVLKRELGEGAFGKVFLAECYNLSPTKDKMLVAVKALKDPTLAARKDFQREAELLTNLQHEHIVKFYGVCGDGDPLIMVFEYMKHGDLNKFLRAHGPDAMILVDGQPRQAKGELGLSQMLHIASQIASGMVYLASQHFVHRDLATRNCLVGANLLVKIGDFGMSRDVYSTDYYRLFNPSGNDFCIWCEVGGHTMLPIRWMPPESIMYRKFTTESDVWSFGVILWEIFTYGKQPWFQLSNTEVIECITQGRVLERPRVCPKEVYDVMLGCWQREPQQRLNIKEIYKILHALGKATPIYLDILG", "assay": "TrkC PathHunter cell-based assay (U2OS-TrkC/p75)", "excerpt": "(§1) The human osteosarcoma cell lines U2OS-TrkA/p75, U2OS-TrkB/p75, U2OS-TrkC/p75, U2OS-ratTrkA/p75, U2OS-FGFR1 (fibroblast growth factor receptor 1) as well as the human embryonic kidney cell line HEK293-IGF1R (insulin-like growth factor 1 receptor) from DiscoverX, Birmingham, United Kingdom, were used in the in vitro experiments. Eagle’s minimum essential medium (EMEM) ATCC #30-2003 from LGC Standards AB, Borås, Sweden; Leibovitz’s L15 medium, RPMI1640, fetal bovine serum, horse serum, penicillin/streptomycin, and Hoechst dye purchased from Invitrogen, Gothenburg, Sweden, were also used. Black poly-D-lysine coated 384-well plates (Viewplate) were purchased from PerkinElmer, Upplands Väsby, Sweden, and white 384-well assay plates(3570) were purchased from Corning, Amsterdam, Netherlands. […] Recombinant intracellular domain (ICD) of TrkA (08-186) and single site biotinylated activated (08-486-20N) or non-activated TrkA (08-486-23N) were obtained from Carna Biosciences, Odense, Denmark. […]\n(§2) U2OS cells were maintained subconfluent in EMEM supplemented with 10% FBS and penicillin/streptomycin/hygromycin and G418. […] The functional (complemented) β-gal will hydrolyze a substrate to generate a luminescence signal. The generated luminescence was read using an EnVision plate reader from PerkinElmer, Upplands Väsby, Sweden, or an ID5 plate reader from Molecular Devices, Berkshire, RG41 5TS UK. […]"}, "TrkB": {"target": "T2, TrkB (Homo sapiens, UniProt Q16620)", "T2 construct": "host or cells: U2OS (human osteosarcoma), co-expressing p75 and SHC-1 fused to the enzyme acceptor", "T2 sequence (Q16620 32-822)": "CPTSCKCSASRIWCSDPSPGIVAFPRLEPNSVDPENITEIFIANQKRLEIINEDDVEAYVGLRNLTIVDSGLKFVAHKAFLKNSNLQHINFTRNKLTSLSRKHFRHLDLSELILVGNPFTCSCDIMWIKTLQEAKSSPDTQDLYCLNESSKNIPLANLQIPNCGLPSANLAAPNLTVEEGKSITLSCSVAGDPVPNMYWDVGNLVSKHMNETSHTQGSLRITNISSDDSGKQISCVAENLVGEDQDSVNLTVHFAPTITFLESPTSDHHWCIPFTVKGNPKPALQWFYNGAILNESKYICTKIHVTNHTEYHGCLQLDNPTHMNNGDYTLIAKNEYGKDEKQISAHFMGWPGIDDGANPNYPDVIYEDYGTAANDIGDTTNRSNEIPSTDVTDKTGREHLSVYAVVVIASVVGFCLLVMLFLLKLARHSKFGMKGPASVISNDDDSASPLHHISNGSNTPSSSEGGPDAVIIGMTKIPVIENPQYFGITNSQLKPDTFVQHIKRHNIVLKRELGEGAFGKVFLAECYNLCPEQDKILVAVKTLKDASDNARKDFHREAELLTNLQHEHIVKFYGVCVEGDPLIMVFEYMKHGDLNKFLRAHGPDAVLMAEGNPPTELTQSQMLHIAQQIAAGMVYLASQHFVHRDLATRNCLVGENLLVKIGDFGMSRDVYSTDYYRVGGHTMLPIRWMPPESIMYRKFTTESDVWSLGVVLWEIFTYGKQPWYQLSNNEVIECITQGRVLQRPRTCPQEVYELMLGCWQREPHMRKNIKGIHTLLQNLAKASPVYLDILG", "assay": "TrkB PathHunter cell-based assay (U2OS-TrkB/p75)", "procedure": "U2OS cells were maintained subconfluent in EMEM supplemented with 10% FBS and penicillin/streptomycin/hygromycin and G418. One day prior to the experiment, 5000 cells of EMEM supplemented with 0.5% horse serum were seeded in each well of a 384-well white plate. The assay was performed as previously described. Briefly, the TrkA or TrkB cell-based PathHunter® assays use enzyme fragment complementation (EFC) technology for the complementation of two β-galactosidase (β-gal) fragments in order to study protein–protein interactions. Upon activation with ligand, TrkA or TrkB are phosphorylated on several tyrosine residues, including tyrosine 490, leading to an interaction with SHC-1. In the PathHunter® assays, the Trk-receptors are fused to an enzyme donor tag, and SHC-1 is fused to a larger part of β-gal called an enzyme acceptor. The interactions between the recombinant enzyme donor, i.e., the Trk-receptor, with an enzyme acceptor, i.e., SHC-1, leads to an active β-gal enzyme. The functional (complemented) β-gal will hydrolyze a substrate to generate a luminescence signal. The generated luminescence was read using an EnVision plate reader from PerkinElmer, Upplands Väsby, Sweden, or an ID5 plate reader from Molecular Devices, Berkshire, RG41 5TS UK. […] Min- and Max-control wells were included on each plate. A compound was considered a hit if the percent activation was more than 50% and if the value was two standard deviations higher than the mean value of all of the samples on the plate. The average activation of all of samples on 10 different 384-well plates was 31%. […] Due to the risk of adverse events with the systemic administration of TrkA agonists, the screen and the re-screen processes were designed to increase the likelihood of identifying the positive modulators of NGF-signaling rather than identifying TrkA agonists. Based on the results of the re-screen, in combination with the physical–chemical properties of the molecules, a collection of hits was used for the EC50 determinations.\nBoth Toltrazuril and Ponazuril are registered veterinary products prescribed for parasitic infections in animals. […] The cellular response to NGF or BDNF was measured using PathHunter® assays employing β-gal enzyme fragment complementation technology. The activation of Trk-receptors leads to an intracellular interaction between the Trk-receptor and SHC-1 and thereby to the complementation of β-gal, which will render in a functional enzyme. β-gal will hydrolyze a substrate to generate luminescence, which is proportional to the number of activated receptors. […]"}, "[1]": {"target": "T3, insulin-like growth factor 1 receptor (IGF1R) (Homo sapiens, UniProt P08069)", "T3 construct": "host or cells: HEK293", "T3 sequence (P08069 31-1367)": "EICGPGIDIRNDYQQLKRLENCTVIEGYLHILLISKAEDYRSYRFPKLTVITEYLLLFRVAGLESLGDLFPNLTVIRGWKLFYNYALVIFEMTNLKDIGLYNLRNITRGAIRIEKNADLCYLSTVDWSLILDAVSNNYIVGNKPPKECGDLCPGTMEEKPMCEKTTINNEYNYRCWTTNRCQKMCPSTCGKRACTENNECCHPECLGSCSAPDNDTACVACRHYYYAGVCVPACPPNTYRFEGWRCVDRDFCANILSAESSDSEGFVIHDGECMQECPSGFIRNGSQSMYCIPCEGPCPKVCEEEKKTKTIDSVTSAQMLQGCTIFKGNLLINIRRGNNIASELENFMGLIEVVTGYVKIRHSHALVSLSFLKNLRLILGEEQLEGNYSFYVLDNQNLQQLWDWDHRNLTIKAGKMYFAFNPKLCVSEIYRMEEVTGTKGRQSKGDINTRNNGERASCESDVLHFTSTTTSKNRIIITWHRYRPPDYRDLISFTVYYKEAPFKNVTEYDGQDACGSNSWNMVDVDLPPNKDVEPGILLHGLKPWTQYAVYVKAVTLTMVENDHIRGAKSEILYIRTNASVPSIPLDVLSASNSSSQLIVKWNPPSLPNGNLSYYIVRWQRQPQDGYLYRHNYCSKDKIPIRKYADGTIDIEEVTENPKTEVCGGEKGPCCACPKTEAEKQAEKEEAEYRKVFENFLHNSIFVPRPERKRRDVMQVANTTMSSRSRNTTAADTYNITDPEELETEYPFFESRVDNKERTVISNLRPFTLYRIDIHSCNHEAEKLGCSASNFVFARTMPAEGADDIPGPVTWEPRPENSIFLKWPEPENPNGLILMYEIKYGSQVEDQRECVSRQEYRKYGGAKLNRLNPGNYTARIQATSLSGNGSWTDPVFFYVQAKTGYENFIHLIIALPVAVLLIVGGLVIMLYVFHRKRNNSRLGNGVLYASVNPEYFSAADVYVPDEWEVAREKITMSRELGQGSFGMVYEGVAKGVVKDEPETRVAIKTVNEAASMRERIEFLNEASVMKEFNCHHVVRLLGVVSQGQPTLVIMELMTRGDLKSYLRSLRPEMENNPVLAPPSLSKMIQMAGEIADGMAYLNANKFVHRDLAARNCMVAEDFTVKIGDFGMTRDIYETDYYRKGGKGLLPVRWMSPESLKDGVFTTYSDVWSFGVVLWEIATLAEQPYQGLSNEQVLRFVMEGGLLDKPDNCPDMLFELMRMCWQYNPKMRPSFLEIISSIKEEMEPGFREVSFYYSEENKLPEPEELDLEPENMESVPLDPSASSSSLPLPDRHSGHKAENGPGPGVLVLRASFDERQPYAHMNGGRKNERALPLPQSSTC", "assay": "IGF1R PathHunter cell-based assay (HEK293-IGF1R)", "excerpt": "as §1, §2"}}, "data": [{"smiles": "Cc1cc(-n2c(=O)[nH]c(=O)n(C)c2=O)ccc1Oc1ccc(S(=O)(=O)C(F)(F)F)cc1", "note": "[ACD855, Toltrazuril-sulfone]", "values": [{"measurement": "time with novel object vs familiar object after scopolamine", "setting": "Wistar rats", "result": "spent significantly more time with the novel object"}, {"measurement": "EC50", "setting": "TrkC", "result": 800, "unit": "nM"}, {"measurement": "TrkC Effect (efficacy)", "setting": "TrkC", "result": 56, "unit": "%"}, {"measurement": "EC50", "setting": "TrkB; PathHunter cell-based assay", "result": 3200, "unit": "nM"}, {"measurement": "TrkB Effect (efficacy)", "setting": "TrkB; PathHunter cell-based assay", "result": 319, "unit": "%"}, {"measurement": "activation of TrkB-receptor by compound itself", "setting": "TrkB; without ligand, 100% = 30 ng/mL ligand", "result": 45, "unit": "%"}, {"measurement": "EC50", "setting": "[1]", "result": 900, "unit": "nM"}, {"measurement": "IGF1R Effect (efficacy)", "setting": "[1]", "result": 25, "unit": "%"}]}]}
